Reference: EPA's ToxValDB 9.5 (doi:10.2903/j.efsa.2008.152r)

Legend:
Colinus virginianus = details: acute, oral, mortality
Apis mellifera = details: acute, mortality
Bibionidae = details: chronic/long-term; duration: 28 days
Canidae = details: chronic; duration: 1 years; oral; Dog Other; clinical chemistry
Daphnia magna = details: chronic/long-term; duration: 21 days; reproduction
Pimephales promelas = details: chronic/long-term; duration: 28 days; growth
Aphidius rhopalosiphi = assay: LR50; higher = less toxic; details: not reported; mortality

SMILES	LC50 (Colinus virginianus; diet)	NOEC (Anas platyrhynchos; reproductive)	LC50 (Anas platyrhynchos; short-term, oral, feed, mortality)	LD50 (Apis mellifera; dermal)	LD50 (Apis mellifera; oral, unspecified)	NOEC (Bibionidae)	NOAEL (Canidae)	LD50 (Colinus virginianus)	NOEC (Daphnia magna)	NOEC (Pimephales promelas)	LD50 (Rattus norvegicus; acute, mortality)	NOAEL (Rattus norvegicus; chronic, duration: 2 years, oral, diet, organ weight)	NOAEL (Rattus norvegicus; reproduction developmental, body weight)	NOAEL (Rattus norvegicus; reproduction developmental, reproduction)	LC50 (Tagia sp.; acute, duration: 14 days, mortality)	NOEC (Tagia sp.; chronic/long-term, duration: 4 weeks)	LR50 (Aphidius rhopalosiphi)
NC(Cc1ncn[nH]1)C(=O)O (configuration not stated) [1,2,4-Triazole-3-alanine]	> 5000 mg/kg																
FC(F)C(F)(F)OCC(Cn1cncn1)c1ccc(Cl)cc1Cl (configuration not stated) [Tetraconazole]		1.6 mg/kg-day	55.5 mg/kg-day	63 µg/piece	> 130 µg/piece	4.45 mg/L	2.95 mg/kg-day	132 mg/kg-day	0.19 mg/L	0.3 mg/L	1030 mg/kg-day	0.4 mg/kg-day	5 mg/kg-day	3.6 mg/kg-day	71 mg/kg	≤ 8.2 mg/kg	125 g/ha
